Test results as given in US20200148617A1, “GEMCABENE, PHARMACEUTICALLY ACCEPTABLE SALTS THEREOF, COMPOSITIONS THEREOF AND METHODS OF USE THEREFOR” (GEMPHIRE THERAPEUTICS INC., priority 2017, published 2020).

How the values were obtained:
[1] = Particle size distribution by laser light diffraction (Malvern Mastersizer 2000, Fraunhofer); format: physicochemical; conditions: cumulative volume
Description: In some embodiments, the particle size distribution and the PSD90 of a compound of the invention is determined by the laser light diffraction particle size distribution analysis. The particle size distribution is determined in accordance with the Fraunhofer light diffraction method. In this method, a coherent laser beam passes through the sample and the resulting diffraction pattern is focused on a multi-element detector. Since the diffraction pattern depends, among other parameters, on particle size, the particle size distribution can be calculated based on the measured diffraction pattern of the sample. The method is described in more detail in USP38-NF33, <429> Light Diffraction Measurement of Particle Size.
The particle size distribution was determined in accordance with the Fraunhofer light diffraction method. A coherent laser beam was passed through the sample and the resulting diffraction pattern was focused on a multi-element detector. Because the diffraction pattern depends, among other parameters, on particle size, the particle size distribution (PSD) was calculated based on the measured diffraction patter of the sample.
Stock dispersion solution was prepared by adding a few drops of the dispersing aid (e.g., 1% w/w solution of a detergent in white spirit such as Span 80, Fluka (85548-250 ml)) to an appropriate amount of substance and mixed carefully. The dispersion was then slowly diluted to a final volume of about 10 ml while vortexing. The suspension cell of the instrument (Malvern Mastersizer 2000 equipped with Hydro 2000S sample dispersion unit) was filled with dispersion medium and a background measurement was taken. […] The cumulative volume distribution was determined in accordance with the instrument's instruction manual.
The PSD10, PSD50, and PSD90 values were determined from the cumulative volume distribution of each measurement. Values smaller than 10 μm were reported to one decimal place. Results larger than 10 μm were reported as single digit values. Sample parameters used in analysis are shown below: […]

[2] = system: hepatic mRNA expression in STAM™ mice; assay: Murine STAM model of NASH-HCC: hepatic gene expression by quantitative RT-PCR; format: in vivo, mouse; conditions: for TNF-α mRNA expression (relative, normalized to vehicle-treated normal group): mean±SD, vehicle STAM 3.6±1.0; for ADH-4 mRNA expression levels (relative): vehicle STAM 0.9±0.3; for CRP mRNA levels (relative): vehicle STAM 1.0±0.2; for NF-κB mRNA expression levels (relative): vehicle STAM 1.1±0.1; for MMP-2 mRNA expression levels (relative): vehicle STAM 1.9±0.7; for CCR2 mRNA expression levels (relative): vehicle STAM 3.5±1.7; for MCP-1 mRNA expression levels (relative): vehicle STAM 3.6±1.7; for Sulf-2 mRNA expression levels (relative): vehicle STAM 5.2±1.2; for MIP-1β mRNA levels (relative): vehicle STAM 5.6±2.0; for TIMP-1 mRNA expression (relative): vehicle STAM 12.9±9.0
Description: A study was performed to evaluate the efficacy of gemcabene calcium salt hydrate Crystal Form 1 having a PSD90 of 52 μm as measured by laser light diffraction, in treating non-alcoholic steatosis hepatitis (NASH) in the murine STAM™ model of NASH-HCC.
Briefly, two-day old neonatal C57BL/6 male mice were administered low-dose streptozotocin (STZ), and were subsequently fed a HFC diet from 4 weeks of age. In this model, the mice typically develop liver steatosis and diabetes, reaching steatohepatitis within 3 weeks, followed by cirrhosis within 8 weeks, and carcinoma within 16 weeks. In the current study, mice were administered daily oral gemcabene calcium salt hydrate Crystal Form 1 starting at week 6 of age and were sacrificed at week 9. Telmisartan (with antisteatotic, anti-inflammatory and antifibrotic effects in STAM™ mice) was used as a positive comparator. A baseline reference group was administered vehicle at day 2 of age, and from week 6 of age was vehicle-treated and chow-fed. Five STAM™ groups were streptozocin-treated at day 2 of age and fed a HFC-diet beginning with week 4 of age. These STAM™ groups were orally administered from week 6 one of the following: water-vehicle, gemcabene calcium salt hydrate Crystal Form 1 at 30, 100 and 300 mg/kg daily, or telmisartan ([…]®) 10 mg/kg daily. Telmisartan ([…]®) was purchased from Boehringer Ingelheim GmbH (Germany) and dissolved in pure water. All groups were sacrificed at week 9. Vehicle, gemcabene calcium salt hydrate Crystal Form 1, or telmisartan were administered by oral gavage once daily.
Various gene expression markers of liver metabolism were evaluated by Real-Time PCR (RT-PCR) in all mouse groups. Total RNA was extracted from liver samples using RNAiso (Takara Bio, Japan) according to the manufacturer's instructions. One μg of RNA was reverse-transcribed using a reaction mixture containing 4.4 mM MgCl2 (F. Hoffmann-La Roche, Switzerland), 40 U RNase inhibitor (Toyobo, Japan), 0.5 mM dNTP (Promega, USA), 6.28 μM random hexamer (Promega), 5× first strand buffer (Promega), 10 mM dithiothreitol (Invitrogen, USA) and 200 U MMLV-RT (Invitrogen) in a final volume of 20 μL. The reaction was carried out for 1 hour at 37° C., followed by 5 minutes at 99° C. Real-time PCR was performed using real-time PCR DICE and SYBR premix Taq (Takara Bio). To calculate the relative mRNA expression level, the expression of each gene was normalized to that of reference gene 36B4 (gene symbol: Rplp0). Information of PCR-primer sets is described in Tables 20A-20C. Statistical analyses were performed using the Bonferroni Multiple Comparison Test on GraphPad Prism 6 (GraphPad Software Inc., USA). P values <0.05 were considered statistically significant. Results are expressed as mean±SD.
In order to calculate the relative mRNA expression level, the expression of each gene was normalized to that of the reference gene 36B4 (gene symbol: Rplp0). The gene expression levels were measured by quantitative RT-PCR. Results were normalized with values for the vehicle-treated normal group. […] Gemcabene calcium salt hydrate Crystal Form 1 (PSD90=52 μm) modulated the mRNA expression of many hepatic genes that play a significant role in the liver homeostasis and injury.

[3] = Solubility of gemcabene calcium salt Crystal Form 1 by solvent addition method; format: physicochemical
Description: Approximately 20 mg of gemcabene calcium Crystal Form 1 was added to 5×2 mL vials. The solubility in 5 solvents was tested using a solvent addition method. Solvents included acetone, ethanol, ethyl acetate, t-butyl methyl ether (t-BME) and water. Solvent was added in 5 volume (100 μL) aliquots until either dissolution or 2 mL in total had been added. Between each addition, samples were heated to 60° C. (40° C. for acetone and t-BME). Any solids remaining after 24 hours at ambient were analyzed by X-ray powder diffraction (XRPD).

CC(C)(CCCCOCCCCC(C)(C)C(=O)[O-])C(=O)[O-].O.[Ca+2] [6-(5-Carboxy-5-methyl-hexyloxy)-2,2-dimethylhexanoic acid calcium (gemcabene calcium salt) hydrate Crystal Form 1]
D10 (PSD10) [1]: D10 = 8.9 μm | D50 (PSD50) [1]: D50 = 24.3 μm | D90 (PSD90) [1]: D90 = 44.1 μm | CCR5 mRNA expression levels (relative) ([2]; gemcabene 100 mg/kg): 1.4±0.3 | TNF-α mRNA expression (relative, normalized to vehicle-treated normal group) ([2]; gemcabene 100 mg/kg): 2.0±0.8 | ACC-1 mRNA expression levels (relative) ([2]; gemcabene 100 mg/kg, telmisartan 10 mg/kg, vehicle STAM 0.9±0.2): 0.7±0.1 | ADH-4 mRNA expression levels (relative) ([2]; gemcabene 100 mg/kg): 0.6±0.1 | CRP mRNA levels (relative) ([2]; gemcabene 100 mg/kg): 0.6±0.1 | NF-κB mRNA expression levels (relative) ([2]; gemcabene 100 mg/kg): 0.9±0.1 | MMP-2 mRNA expression levels (relative) ([2]; gemcabene 100 mg/kg): 0.5±0.2 | CCR2 mRNA expression levels (relative) ([2]; gemcabene 100 mg/kg): 1.6±0.4 | MCP-1 mRNA expression levels (relative) ([2]; gemcabene 100 mg/kg): 1.7±0.7 | Sulf-2 mRNA expression levels (relative) ([2]; gemcabene 100 mg/kg): 3.8±0.7 | MIP-1β mRNA levels (relative) ([2]; gemcabene 100 mg/kg): 2.3±0.9 | TIMP-1 mRNA expression (relative) ([2]; gemcabene 100 mg/kg): 3.8±1.6 | CCR5 mRNA expression levels (relative) ([2]; gemcabene 300 mg/kg): 1.3±0.3 | TNF-α mRNA expression (relative, normalized to vehicle-treated normal group) ([2]; gemcabene 300 mg/kg): 1.9±0.7 | ADH-4 mRNA expression levels (relative) ([2]; gemcabene 300 mg/kg): 0.5±0.1 | CRP mRNA levels (relative) ([2]; gemcabene 300 mg/kg): 0.5±0.1 | NF-κB mRNA expression levels (relative) ([2]; gemcabene 300 mg/kg): 0.8±0.1 | MMP-2 mRNA expression levels (relative) ([2]; gemcabene 300 mg/kg): 0.9±0.2 | CCR2 mRNA expression levels (relative) ([2]; gemcabene 300 mg/kg): 1.7±0.7 | MCP-1 mRNA expression levels (relative) ([2]; gemcabene 300 mg/kg): 1.6±0.7 | Sulf-2 mRNA expression levels (relative) ([2]; gemcabene 300 mg/kg): 3.3±0.9 | MIP-1β mRNA levels (relative) ([2]; gemcabene 300 mg/kg): 2.8±1.4 | TIMP-1 mRNA expression (relative) ([2]; gemcabene 300 mg/kg): 4.4±2.1 | Solubility ([3]; /-Butyl Methyl Ether (t-BME)): <10000 µg/mL | Solubility ([3]; Acetone): <10000 µg/mL | Solubility ([3]; Ethanol): <10000 µg/mL | Solubility ([3]; Ethyl Acetate): <10000 µg/mL | Solubility ([3]; Water): 33000 µg/mL
